Data on 14 compounds can be found in US12371436B2, “Substituted benzodiazoliums as ENaC inhibitors” (ENTERPRISE THERAPEUTICS LIMITED, priority 2016, dated 2025).

Molecules are shown by their SMILES. Counter-ions that a name gives are not always drawn.

The target in the assay is T1, ENaC (Homo sapiens, UniProt P37088+P51168+P51170).
T1 construct: host or cells: primary human bronchial epithelial cells (HBECs) differentiated at air-liquid interface
T1 sequence (P37088 1-669): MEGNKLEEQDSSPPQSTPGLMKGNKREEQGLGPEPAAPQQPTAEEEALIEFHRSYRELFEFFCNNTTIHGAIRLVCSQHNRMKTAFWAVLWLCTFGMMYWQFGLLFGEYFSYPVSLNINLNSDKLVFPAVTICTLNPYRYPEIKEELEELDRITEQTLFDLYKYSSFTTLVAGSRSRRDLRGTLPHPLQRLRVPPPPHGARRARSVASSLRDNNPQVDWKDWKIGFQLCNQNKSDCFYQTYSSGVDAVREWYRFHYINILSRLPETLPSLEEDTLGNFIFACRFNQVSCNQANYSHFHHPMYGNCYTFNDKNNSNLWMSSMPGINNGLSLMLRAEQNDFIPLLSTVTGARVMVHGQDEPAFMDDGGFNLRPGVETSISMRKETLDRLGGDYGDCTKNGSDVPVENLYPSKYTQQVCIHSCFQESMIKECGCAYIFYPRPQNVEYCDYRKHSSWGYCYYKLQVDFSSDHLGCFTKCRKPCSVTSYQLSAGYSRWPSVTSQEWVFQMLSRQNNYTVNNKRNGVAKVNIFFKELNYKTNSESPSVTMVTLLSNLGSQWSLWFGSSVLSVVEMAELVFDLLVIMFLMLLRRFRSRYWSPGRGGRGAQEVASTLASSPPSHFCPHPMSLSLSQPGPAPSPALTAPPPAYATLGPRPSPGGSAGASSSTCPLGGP
T1 sequence (P51168 1-640): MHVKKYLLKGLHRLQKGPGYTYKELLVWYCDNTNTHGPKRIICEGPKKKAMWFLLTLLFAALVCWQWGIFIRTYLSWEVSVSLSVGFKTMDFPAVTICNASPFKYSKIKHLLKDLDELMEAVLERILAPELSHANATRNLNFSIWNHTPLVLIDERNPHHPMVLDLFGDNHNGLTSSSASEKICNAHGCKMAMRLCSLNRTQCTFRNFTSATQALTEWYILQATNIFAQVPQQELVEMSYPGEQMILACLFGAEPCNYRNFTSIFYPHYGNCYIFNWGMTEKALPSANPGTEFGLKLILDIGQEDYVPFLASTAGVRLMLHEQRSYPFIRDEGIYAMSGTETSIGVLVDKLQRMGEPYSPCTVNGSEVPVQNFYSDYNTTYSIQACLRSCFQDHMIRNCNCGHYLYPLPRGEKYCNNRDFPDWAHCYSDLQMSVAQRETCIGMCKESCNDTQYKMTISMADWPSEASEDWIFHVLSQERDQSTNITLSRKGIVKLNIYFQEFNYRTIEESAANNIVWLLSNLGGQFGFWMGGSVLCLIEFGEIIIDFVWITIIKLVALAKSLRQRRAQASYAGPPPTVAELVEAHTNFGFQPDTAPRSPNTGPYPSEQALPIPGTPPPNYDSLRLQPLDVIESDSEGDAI
T1 sequence (P51170 1-649): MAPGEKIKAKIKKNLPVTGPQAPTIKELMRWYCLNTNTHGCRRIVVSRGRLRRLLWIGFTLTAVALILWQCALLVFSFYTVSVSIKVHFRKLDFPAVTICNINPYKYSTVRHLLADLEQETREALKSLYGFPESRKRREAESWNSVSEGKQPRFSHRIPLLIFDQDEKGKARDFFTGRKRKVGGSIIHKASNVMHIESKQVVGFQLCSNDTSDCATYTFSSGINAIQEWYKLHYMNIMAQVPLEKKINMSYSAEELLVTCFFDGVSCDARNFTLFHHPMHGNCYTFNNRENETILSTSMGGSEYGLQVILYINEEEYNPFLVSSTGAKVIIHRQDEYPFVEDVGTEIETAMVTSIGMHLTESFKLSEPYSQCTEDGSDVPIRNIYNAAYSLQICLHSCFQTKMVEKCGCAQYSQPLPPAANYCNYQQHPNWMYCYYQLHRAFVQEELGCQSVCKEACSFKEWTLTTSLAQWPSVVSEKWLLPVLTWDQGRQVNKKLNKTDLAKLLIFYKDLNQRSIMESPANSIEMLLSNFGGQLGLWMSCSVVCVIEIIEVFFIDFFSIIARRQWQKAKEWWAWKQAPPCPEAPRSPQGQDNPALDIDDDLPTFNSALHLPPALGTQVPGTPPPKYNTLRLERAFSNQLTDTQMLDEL
As to the kind of experiment: Short circuit current assay to determine ENaC blocker potency in human bronchial epithelial cells. The class given is cell-based. The settings on record: 50% inhibition of total amiloride-sensitive ISC, apical addition, read-out: Averages.ENaC IC50 (nM) Avg. The protocol:
Example 68—Short circuit current assay to determine ENaC blocker potency in human bronchial epithelial cells
Human bronchial epithelial cells (HBECs) (Lonza, UK) were cultured using a modification of the method described by Coote et al, (2008). Cells were seeded into plastic T-75 flasks and grown in Bronchial Epithelial Cell Growth Medium (BEGM) (Lonza, UK) supplemented with bovine pituitary extract (52 ng/mL), hydrocortisone (0.5 μg/mL), human recombinant Epidermal Growth Factor (0.5 ng/mL), epinephrine (0.5 ng/mL), transferrin (10 ng/mL), insulin (5 ng/mL), retinoic acid (0.1 ng/mL), triiodothyronine (6.5 ng/mL), gentamycin (50 μg/mL) and amphotericin-B (50 ng/mL). Medium was changed every 48 hours until cells were 90% confluent. Cells were then passaged and seeded (8.25×10^5 cells/insert) onto polycarbonate Snapwell™ inserts (Costar, UK) in differentiation media containing 50% DMEM in BGEM with the same supplements as above but without triiodothyronine and a final retinoic acid concentration of 50 nM (all-trans retinoic acid; Sigma-Aldrich, UK). Cells were maintained submerged for the first 7 days in culture after which time they were exposed to an apical air interface for the remainder of the culture period. From the first day of establishment of an ALI, HBEC were fed with a DMEM:HAMS F-12 (1:1) media containing 2% Ultroser G (Pall BioSepra, France) with gentamycin (50 μg/mL) and amphotericin B (50 ng/mL). Cells were used for short-circuit current assay between days 14-21 after the establishment of the ALI. At all stages of culture, cells were maintained at 37° C. in 5% CO2 in an air incubator.
Short-Circuit Current (ISC) Measurements
Snapwell inserts were mounted in Costar Vertical Diffusion Chambers (Costar, UK) and were bathed with continuously gassed Ringer solution (5% CO2 in O2; pH 7.4) maintained at 37° C. containing (in mM): 120 NaCl, 25 NaHCO3, 3.3 KH2PO4, 0.8 K2HPO4, 1.2 CaCl2, 1.2 MgCl2 and 10 glucose. The solution osmolarity was always between 280-300 mOsm/kg H2O for all physiological salt solutions used. Cells were voltage clamped to 0 mV (model EVC4000, WPI). Transepithelial resistance (RT) was measured by applying a 2 mV pulse at 30 s intervals and calculating RT by Ohm's law. Data were recorded using a PowerLab workstation (ADlnstruments, UK).
ENaC blocker compounds were added to the apical chamber from a 1000-fold stock solution (prepared in DMSO) to achieve a cumulative concentration response in terms of the inhibition of the basal ISC. At the completion of the concentration response, a supra-maximal concentration of amiloride (10 μM) was added. The concentration of test compound that induced a 50% inhibition of the total amiloride-sensitive ISC (IC50) was calculated using GraphPad Prism v6.05. The results are presented in Table 2, from which it can be seen that the compounds of the present invention have ENaC inhibiting activity.
Consider `CCn1c(CNC(=O)c2nc3cc[nH]c3nc2N)[n+](CC)c2ccc(OCCCN(C[C@H](O)[C@@H](O)[C@H](O)[C@H](O)CO)C[C@H](O)[C@@H](O)[C@H](O)[C@H](O)CO)cc21` [Example 44, 2-[({3-amino-5H-pyrrolo[2,3-b]pyrazin-2-yl}formamido)methyl]-5-(3-{bis[(2S,3R,4R,5R)-2,3,4,5,6-pentahydroxyhexyl]amino}propoxy)-1,3-diethyl-1H-1,3-benzodiazol-3-ium], for which the IC50 came to 21 nM.

For `CCn1c(CNC(=O)c2nc3cc[nH]c3nc2N)[n+](C)c2ccc(F)cc21` [Example 2, 2-[({3-amino-5H-pyrrolo[2,3-b]pyrazin-2-yl}formamido)methyl]-1-ethyl-6-fluoro-3-methyl-1H-1,3-benzodiazol-3-ium chloride], the IC50 worked out at 43 nM.

For the compound `CCn1c(CNC(=O)c2nc3cc[nH]c3nc2N)[n+](CC)c2ccc(C(=O)N3CCC(N)CC3)cc21` [Example 41, 2-[({3-amino-5H-pyrrolo[2,3-b]pyrazin-2-yl}formamido)methyl]-6-(4-aminopiperidine-1-carbonyl)-1,3-diethyl-1H-1,3-benzodiazol-3-ium], the IC50 came out at 11 nM.

Turning to `CCn1c(CNC(=O)c2nc3cc[nH]c3nc2N)[n+](CC)c2ccc(C(=O)NCCN3CCC(NC(=O)OC(C)(C)C)CC3)cc21` [Example 38, 2-[({3-amino-5H-pyrrolo[2,3-b]pyrazin-2-yl}formamido)methyl]-6-{[2-(4-{[(tert-butoxy)carbonyl]amino}piperidin-1-yl)ethyl]carbamoyl}-1,3-diethyl-1H-1,3-benzodiazol-3-ium], the IC50 was 9 nM.

As to `CCn1c(CNC(=O)c2nc3cc[nH]c3nc2N)[n+](CC)c2ccc(C3CCN(C[C@H](O)[C@@H](O)[C@H](O)[C@H](O)CO)CC3)cc21` [Example 46, 2-[({3-amino-5H-pyrrolo[2,3-b]pyrazin-2-yl}formamido)methyl]-1,3-diethyl-6-{1-[(2S,3R,4R,5R)-2,3,4,5,6-pentahydroxyhexyl]piperidin-4-yl}-1H-1,3-benzodiazol-3-ium], the 50% inhibitory concentration (IC50) turned out to be 8 nM.

With `CCn1c(CNC(=O)c2nc3cc[nH]c3nc2N)[n+](CCO)c2ccc(OC)cc21` [Example 13, 2-[({3-amino-5H-pyrrolo[2,3-b]pyrazin-2-yl}formamido)methyl]-1-ethyl-3-(2-hydroxyethyl)-6-methoxy-1H-1,3-benzodiazol-3-ium], the IC50 was 4 nM.

Regarding `CCn1c(CNC(=O)c2nc3c(Cl)c[nH]c3nc2N)[n+](CC)c2ccc(Cl)cc21` [Example 21, 2-[({3-amino-7-chloro-5H-pyrrolo[2,3-b]pyrazin-2-yl}formamido)methyl]-6-chloro-1,3-diethyl-1H-1,3-benzodiazol-3-ium], the IC50 is 2 nM.

Take `CCn1c(CNC(=O)c2nc3cc[nH]c3nc2N)[n+](CC)c2ccc(OCCCN)cc21` [Example 28, 2-[({3-amino-5H-pyrrolo[2,3-b]pyrazin-2-yl}formamido)methyl]-6-(3-aminopropoxy)-1,3-diethyl-1H-1,3-benzodiazol-3-ium]: the half-maximal inhibitory concentration (IC50) amounted to 7 nM.

Regarding `CCn1c(CNC(=O)c2nc3cc[nH]c3nc2N)[n+](CC)c2ccc(C(=O)N3CC[C@@H](N(C[C@H](O)[C@@H](O)[C@H](O)[C@H](O)CO)C[C@H](O)[C@@H](O)[C@H](O)[C@H](O)CO)C3)cc21` [Example 53, 2-[({3-amino-5H-pyrrolo[2,3-b]pyrazin-2-yl}formamido)methyl]-6-[(3R)-3-{bis[(2S,3R,4R,5R)-2,3,4,5,6-pentahydroxyhexyl]amino}pyrrolidine-1-carbonyl]-1,3-diethyl-1H-1,3-benzodiazol-3-ium], the IC50 was determined as 202 nM.

`CCn1c(CNC(=O)c2nc3c(C#N)c[nH]c3nc2N)[n+](CC)c2ccc(OC)cc21` [Example 67, 2-[({3-amino-7-cyano-5H-pyrrolo[2,3-b]pyrazin-2-yl}formamido)methyl]-1,3-diethyl-6-methoxy-1H-1,3-benzodiazol-3-ium formate]: the IC50 is 54 nM.

Consider `CCn1c(CNC(=O)c2nc3cc[nH]c3nc2N)[n+](Cc2ccccc2)c2ccc(Cl)cc21` [Example 16, 2-[({3-amino-5H-pyrrolo[2,3-b]pyrazin-2-yl}formamido)methyl]-3-benzyl-6-chloro-1-ethyl-1H-1,3-benzodiazol-3-ium], for which the IC50 is 10 nM.

As for `C[n+]1c(CNC(=O)c2nc3cc[nH]c3nc2N)n(Cc2ccccc2)c2ccccc21` [Example 15, 2-[({3-amino-5H-pyrrolo[2,3-b]pyrazin-2-yl}formamido)methyl]-1-benzyl-3-methyl-1H-1,3-benzodiazol-3-ium], the half-maximal inhibitory concentration (IC50) was 198 nM.

In the case of `CCn1c(CNC(=O)c2nc3cc[nH]c3nc2N)[n+](CC)c2ccc(OC)cc21` [Example 7, 2-[({3-amino-5H-pyrrolo[2,3-b]pyrazin-2-yl}formamido)methyl]-1,3-diethyl-6-methoxy-1H-1,3-benzodiazol-3-ium formate], the IC50 came out at 3 nM.

Regarding `CCn1c(CNC(=O)c2nc3cc[nH]c3nc2N)[n+](CCOCCOCCO)c2ccc(OC)cc21` [Example 14, 2-[({3-amino-5H-pyrrolo[2,3-b]pyrazin-2-yl}formamido)methyl]-1-ethyl-3-{2-[2-(2-hydroxyethoxy)ethoxy]ethyl}-6-methoxy-1H-1,3-benzodiazol-3-ium], the IC50 stood at 11 nM.
